Assay results from patent US12378256B2, “Heterocyclic compound” (Takeda Pharmaceutical Company Limited, priority 2017, dated 2025).
pEC50: −log10 of the molar value.

Legend:
[1] = target: T1, human M1 receptor (hCHRM1) (Homo sapiens, UniProt P11229); assay: Measurement of M1 receptor positive allosteric modulator (M1PAM) activity, calcium fluorescence with acetylcholine at EC20; type: cell-based; settings: for activity (%) at 10 μM: 10 μM test compound, 100% = 1 μM acetylcholine, 0% = DMSO; for pEC50: CHO-K1 cells expressing hCHRM1, acetylcholine at EC20 (final 0.8-1.0 nM), read-out: IP value (inflection point in the concentration-dependent curve)
T1 construct: expressed in transfected cells; host or cells: CHO-K1
T1 sequence (P11229 1-460): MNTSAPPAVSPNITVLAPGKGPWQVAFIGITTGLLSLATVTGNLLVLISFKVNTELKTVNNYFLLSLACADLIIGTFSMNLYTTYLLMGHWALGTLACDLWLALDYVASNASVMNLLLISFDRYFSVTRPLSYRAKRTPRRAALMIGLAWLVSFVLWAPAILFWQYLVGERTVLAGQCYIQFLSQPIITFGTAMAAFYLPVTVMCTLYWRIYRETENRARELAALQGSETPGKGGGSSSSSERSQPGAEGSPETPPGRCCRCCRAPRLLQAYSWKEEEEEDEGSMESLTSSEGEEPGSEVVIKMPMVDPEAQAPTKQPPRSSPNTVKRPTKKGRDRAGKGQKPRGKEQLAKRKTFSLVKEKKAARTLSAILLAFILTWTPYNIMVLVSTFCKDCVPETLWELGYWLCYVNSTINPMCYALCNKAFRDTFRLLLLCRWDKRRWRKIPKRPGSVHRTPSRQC
Protocol: Measurement of M1 Receptor Positive Allosteric Modulator (M1PAM) Activity
The activity of a test compound in the presence of acetylcholine at EC20 concentration (final concentration 0.8-1.0 nM), which affords an action corresponding to about 20% of the maximum activity, was measured as PAM activity. The method is as follows. CHO-K1 cells stably expressing a human M1 receptor (hCHRM1) were plated on a 384-well black clear bottom plate (BD Falcon) at 5,000 cells/well, and cultured in an incubator at 37° C., 5% CO2 for 1 day. The medium in the cell plate was removed, and assay buffer A containing calcium indicator (Recording medium (DOJINDO LABORATORIES), 0.1% BSA (Wako Pure Chemical Industries, Ltd.), 2.5 μg/mL Fluo-4 AM (DOJINDO LABORATORIES), 0.08% Pluronic F127 (DOJINDO LABORATORIES), 1.25 mM probenecid (DOJINDO LABORATORIES)) was added at 30 μL/well. The cells were left standing in the incubator at 37° C., 5% CO2 for 30 min, and further left standing at room temperature for 30 min. A test compound prepared by diluting with assay buffer B (HBSS (Invitrogen), 20 mM HEPES (Invitrogen), 0.1% BSA) containing 3.2-4.0 nM acetylcholine was added at 10 μL/well, and the fluorescence was measured by FDSS/μCELL (Hamamatsu Photonics K.K.) for 1 min every for 1 second. With the definition that the amount of change in the fluorescence on addition of acetylcholine (final concentration 1 μM) is 100% and that on addition of DMSO instead of a test compound is 0%, the activity (%) of the test compound was calculated, and the inflection point in the concentration-dependent curve of the test compound was calculated as IP values.

[2] = test system: Male SD rats; assay: Rat defecation experiment; type: in vivo; settings: mean ± standard error
Protocol: Rat Defecation Experiment
Male SD rats (5-6 weeks old) were used after an acclimation period for about 1 week. A test drug (1 mg/kg or 3 mg/kg) was suspended in 0.5% methylcellulose solution and orally administered at a volume of 5 mL/kg, and the number of feces 2 hr later was counted. Only 0.5% methylcellulose was administered to a solvent administration group.

activity (%) at 10 μM [1] [%] | pEC50 [1] | SMILES | number of feces 2 hr later ([2]; 1 mg/kg oral) | number of feces 2 hr later ([2]; 3 mg/kg oral)
107 | 9.20 | Cn1cc(-c2ccc(C(F)c3cc(C(=O)N[C@H]4CCOC[C@@H]4O)nc4ccoc34)cc2)nn1 (single isomer, unassigned) [Example 55, 1,5-anhydro-2,3-dideoxy-3-(((7-(fluoro(4-(1-methyl-1H-1,2,3-triazol-4-yl)phenyl)methyl)furo[3,2-b]pyridin-5-yl)carbonyl)amino)-L-threo-pentitol] | – | –
98 | 9.06 | Cn1cc(-c2ccc(Cc3cc(C(=O)N[C@H]4CCOC[C@@H]4O)nc4ccoc34)cc2)nn1 [Example 20, 1,5-anhydro-2,3-dideoxy-3-(((7-(4-(1-methyl-1H-1,2,3-triazol-4-yl)benzyl)furo[3,2-b]pyridin-5-yl)carbonyl)amino)-L-threo-pentitol] | 10.6 ± 1.3 | 12.1 ± 1.1
106 | 8.77 | O=C(N[C@H]1CCOC[C@@H]1O)c1cc(Cc2ccc(-n3cccn3)cc2)c2c(n1)CCO2 [Example 22, 1,5-anhydro-2,3-dideoxy-3-(((7-(4-(1H-pyrazol-1-yl)benzyl)-2,3-dihydrofuro[3,2-b]pyridin-5-yl)carbonyl)amino)-L-threo-pentitol] | – | –
101 | 8.85 | Cn1cc(-c2ccc(Cc3cc(C(=O)N[C@H]4CCOC[C@@H]4O)nc4c3OCC4)cc2)nn1 [Example 31, 1,5-anhydro-2,3-dideoxy-3-(((7-(4-(1-methyl-1H-1,2,3-triazol-4-yl)benzyl)-2,3-dihydrofuro[3,2-b]pyridin-5-yl)carbonyl)amino)-L-threo-pentitol] | 10.0 ± 1.4 | –
96 | 8.82 | Cn1cc(-c2ccc(Cc3cc(C(=O)N[C@H]4CCOC[C@@H]4O)nc4ccoc34)cn2)cn1 [Example 36, 1,5-anhydro-2,3-dideoxy-3-(((7-((6-(1-methyl-1H-pyrazol-4-yl)pyridin-3-yl)methyl)furo[3,2-b]pyridin-5-yl)carbonyl)amino)-L-threo-pentitol] | – | –
105 | 8.82 | Cn1cc(-c2ccc(Cc3cc(C(=O)N[C@H]4CCOC[C@@H]4O)nc4c3OCC4)cc2)cn1 [Example 44, 1,5-anhydro-2,3-dideoxy-3-(((7-(4-(1-methyl-1H-pyrazol-4-yl)benzyl)-2,3-dihydrofuro[3,2-b]pyridin-5-yl)carbonyl)amino)-L-threo-pentitol] | – | –
108 | 8.82 | Cn1cnc(-c2ccc(Cc3cc(C(=O)N[C@H]4CCOC[C@@H]4O)nc4c3OCC4)cc2)c1 [Example 74, 1,5-anhydro-2,3-dideoxy-3-(((7-(4-(1-methyl-1H-imidazol-4-yl)benzyl)-2,3-dihydrofuro[3,2-b]pyridin-5-yl)carbonyl)amino)-L-threo-pentitol] | – | –
109 | 8.46 | COCCNC(=O)c1ccc(Cc2cc(C(=O)N[C@H]3CCOC[C@@H]3O)nc3c2OCC3)cc1F [Example 76, 1,5-anhydro-2,3-dideoxy-3-(((7-(3-fluoro-4-((2-methoxyethyl)carbamoyl)benzyl)-2,3-dihydrofuro[3,2-b]pyridin-5-yl)carbonyl)amino)-L-threo-pentitol] | 8.3 ± 0.8 | 10.3 ± 0.9
108 | 8.49 | O=C(N[C@H]1CCOC[C@@H]1O)c1cc(Cc2ccc(C(=O)NC[C@@H]3CCCO3)c(F)c2)c2c(n1)CCO2 [Example 77, 1,5-anhydro-2,3-dideoxy-3-(((7-(3-fluoro-4-(((2S)-tetrahydrofuran-2-ylmethyl)carbamoyl)benzyl)-2,3-dihydrofuro[3,2-b]pyridin-5-yl)carbonyl)amino)-L-threo-pentitol] | 13.9 ± 1.5 | 12.3 ± 1.6
107 | 8.57 | O=C(N[C@H]1CCOC[C@@H]1O)c1cc(Cc2ccc(C(=O)NC[C@@H]3CCCO3)c(F)c2)c2occc2n1 [Example 102, 1,5-anhydro-2,3-dideoxy-3-(((7-(3-fluoro-4-(((2S)-tetrahydrofuran-2-ylmethyl)carbamoyl)benzyl)furo[3,2-b]pyridin-5-yl)carbonyl)amino)-L-threo-pentitol] | 8.9 ± 1.3 | 12.4 ± 0.9
107 | 8.62 | COCCNC(=O)c1ccc(Cc2cc(C(=O)N[C@H]3CCOC[C@@H]3O)nc3ccoc23)cc1F [Example 109, 1,5-anhydro-2,3-dideoxy-3-(((7-(3-fluoro-4-((2-methoxyethyl)carbamoyl)benzyl)furo[3,2-b]pyridin-5-yl)carbonyl)amino)-L-threo-pentitol] | – | –
